# Measurements taken from US9738634B2, “Heterocyclic amide compound and herbicide” (SYNGENTA PARTICIPATIONS AG, priority 2013, dated 2017).
# How the values were obtained:
# Assay type in all cases: in vivo
# [1] = test system: barnyard grass; test: Test Example 1: weedkilling efficacy, preemergent weed treatment in the submerged state; A: barnyard grass; details: treatment dosage 252 g/ha
# How it was run: (§1)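 Alluvial soil in Wagner pots flooded to 4 cm; barnyard grass, bulrush and oval-leafed pondweed seeds sown, then 2.5-leaf rice seedlings transplanted. Same day, emulsified compound diluted in water to set g/ha dosages and applied to water surface; greenhouse 25–30 °C, effect scored by criteria after 3 weeks.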
# [2] = test system: bulrush; test: Test Example 1: weedkilling efficacy, preemergent weed treatment in the submerged state; B: bulrush; details: treatment dosage 252 g/ha
# How it was run: as §1
# [3] = test system: oval-leafed pondweed; test: Test Example 1: weedkilling efficacy, preemergent weed treatment in the submerged state; C: oval-leafed pondweed; details: treatment dosage 252 g/ha
# How it was run: as §1
# [4] = test system: transplanted rice; test: Test Example 1: preemergent weed treatment in the submerged state, effect on crop; a: transplanted rice; details: treatment dosage 252 g/ha
# How it was run: as §1
# [5] = test system: barnyard grass; test: Test Example 2: weedkilling efficacy, growth period weed treatment in the submerged state; A: barnyard grass; details: treatment dosage 252 g/ha
# How it was run: (§2)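 First, alluvial soil in pots is flooded to 4 cm and mixed seed is sown. Next, plants grow in a greenhouse at 25 to 30° C until the 1-2 leaf stage. Then diluted emulsion is applied onto the water surface at the given g/ha rate, and injury is assessed after 3 weeks.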
# [6] = test system: bulrush; test: Test Example 2: weedkilling efficacy, growth period weed treatment in the submerged state; B: bulrush; details: treatment dosage 252 g/ha
# How it was run: as §2
# [7] = test system: oval-leafed pondweed; test: Test Example 2: weedkilling efficacy, growth period weed treatment in the submerged state; C: oval-leafed pondweed; details: treatment dosage 252 g/ha
# How it was run: as §2
# [8] = test system: crabgrass; test: Test Example 3: weedkilling efficacy through soil treatment; D: crabgrass; details: treatment dosage 315 g/ha
# How it was run: (§3)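 Crop and weed responses were judged three weeks after a uniform surface spray of the water-diluted emulsion at the given g/ha rate. Seeds sat beneath about 1.5 cm of sterilized diluvial soil, and boxes stood in a greenhouse at 25 to 30° C.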
# [9] = test system: green foxtail; test: Test Example 3: weedkilling efficacy through soil treatment; E: green foxtail; details: treatment dosage 315 g/ha
# How it was run: as §3
# [10] = test system: wild oat; test: Test Example 3: weedkilling efficacy through soil treatment; G: wild oat; details: treatment dosage 315 g/ha
# How it was run: as §3
# [11] = test system: black-grass; test: Test Example 3: weedkilling efficacy through soil treatment; H: black-grass; details: treatment dosage 315 g/ha
# How it was run: as §3
# [12] = test system: Italian ryegrass; test: Test Example 3: weedkilling efficacy through soil treatment; I: Italian ryegrass; details: treatment dosage 315 g/ha
# How it was run: as §3
# [13] = test system: Indian mallow; test: Test Example 3: weedkilling efficacy through soil treatment; K: Indian mallow; details: treatment dosage 315 g/ha
# How it was run: as §3
# [14] = test system: redroot pigweed; test: Test Example 3: weedkilling efficacy through soil treatment; L: redroot pigweed; details: treatment dosage 315 g/ha
# How it was run: as §3
# [15] = test system: fig-leafed goosefoot; test: Test Example 3: weedkilling efficacy through soil treatment; M: fig-leafed goosefoot; details: treatment dosage 315 g/ha
# How it was run: as §3
# [16] = test system: chickweed; test: Test Example 3: weedkilling efficacy through soil treatment; N: chickweed; details: treatment dosage 315 g/ha
# How it was run: as §3
# [17] = test system: catchweed; test: Test Example 3: weedkilling efficacy through soil treatment; O: catchweed; details: treatment dosage 315 g/ha
# How it was run: as §3
# [18] = test system: birds-eye speedwell; test: Test Example 3: weedkilling efficacy through soil treatment; p: birds-eye speedwell; details: treatment dosage 315 g/ha
# How it was run: as §3
# [19] = test system: directly sown rice; test: Test Example 3: soil treatment, effect on crop; b: directly sown rice; details: treatment dosage 315 g/ha
# How it was run: as §3
# [20] = test system: corn; test: Test Example 3: soil treatment, effect on crop; c: corn; details: treatment dosage 315 g/ha
# How it was run: as §3
# [21] = test system: soybean; test: Test Example 3: soil treatment, effect on crop; d: soybean; details: treatment dosage 315 g/ha
# How it was run: as §3
# [22] = test system: wheat; test: Test Example 3: soil treatment, effect on crop; e: wheat; details: treatment dosage 315 g/ha
# How it was run: as §3
# [23] = test system: beet; test: Test Example 3: soil treatment, effect on crop; f: beet; details: treatment dosage 315 g/ha
# How it was run: as §3
# [24] = test system: crabgrass; test: Test Example 4: weedkilling efficacy by foliar treatment; D: crabgrass; details: treatment dosage 315 g/ha
# How it was run: (§4)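 Seeds are spot-sown into sterilized diluvial soil and covered with about 1.5 cm of soil. After 14 days' greenhouse growth at 25 to 30° C, plants are sprayed on stems and leaves with diluted emulsion at the stated g/ha rate, then scored at 3 weeks.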
# [25] = test system: green foxtail; test: Test Example 4: weedkilling efficacy by foliar treatment; E: green foxtail; details: treatment dosage 315 g/ha
# How it was run: as §4
# [26] = test system: wild oat; test: Test Example 4: weedkilling efficacy by foliar treatment; G: wild oat; details: treatment dosage 315 g/ha
# How it was run: as §4
# [27] = test system: black-grass; test: Test Example 4: weedkilling efficacy by foliar treatment; H: black-grass; details: treatment dosage 315 g/ha
# How it was run: as §4
# [28] = test system: Italian ryegrass; test: Test Example 4: weedkilling efficacy by foliar treatment; I: Italian ryegrass; details: treatment dosage 315 g/ha
# How it was run: as §4
# [29] = test system: Indian mallow; test: Test Example 4: weedkilling efficacy by foliar treatment; K: Indian mallow; details: treatment dosage 315 g/ha
# How it was run: as §4
# [30] = test system: redroot pigweed; test: Test Example 4: weedkilling efficacy by foliar treatment; L: redroot pigweed; details: treatment dosage 315 g/ha
# How it was run: as §4
# [31] = test system: fig-leafed goosefoot; test: Test Example 4: weedkilling efficacy by foliar treatment; M: fig-leafed goosefoot; details: treatment dosage 315 g/ha
# How it was run: as §4
# [32] = test system: chickweed; test: Test Example 4: weedkilling efficacy by foliar treatment; N: chickweed; details: treatment dosage 315 g/ha
# How it was run: as §4
# [33] = test system: catchweed; test: Test Example 4: weedkilling efficacy by foliar treatment; O: catchweed; details: treatment dosage 315 g/ha
# How it was run: as §4
# [34] = test system: birds-eye speedwell; test: Test Example 4: weedkilling efficacy by foliar treatment; p: birds-eye speedwell; details: treatment dosage 315 g/ha
# How it was run: as §4
# [35] = test system: directly sown rice; test: Test Example 4: foliar treatment, effect on crop; b: directly sown rice; details: treatment dosage 315 g/ha
# How it was run: as §4
# [36] = test system: corn; test: Test Example 4: foliar treatment, effect on crop; c: corn; details: treatment dosage 315 g/ha
# How it was run: as §4
# [37] = test system: soybean; test: Test Example 4: foliar treatment, effect on crop; d: soybean; details: treatment dosage 315 g/ha
# How it was run: as §4
# [38] = test system: wheat; test: Test Example 4: foliar treatment, effect on crop; e: wheat; details: treatment dosage 315 g/ha
# How it was run: as §4
# [39] = test system: beet; test: Test Example 4: foliar treatment, effect on crop; f: beet; details: treatment dosage 315 g/ha
# How it was run: as §4
structure (smiles),measurement,setting,value
CC1=C(c2ccccc2)C(=O)N(C(C)(C)C(=O)Nc2cncc(C(F)(F)F)c2)CO1 [B-3-03],A (barnyard grass) weedkilling efficacy grade,[1],"5 (weed kill ratio 90% or more, (practically complete withering))"
same,B (bulrush) weedkilling efficacy grade,[2],"5 (weed kill ratio 90% or more, (practically complete withering))"
same,C (oval-leafed pondweed) weedkilling efficacy grade,[3],"5 (weed kill ratio 90% or more, (practically complete withering))"
same,a (transplanted rice) effect on crop grade,[4],0 (weed kill ratio 5% or less (practically no effect))
same,A (barnyard grass) weedkilling efficacy grade,[5],"5 (weed kill ratio 90% or more, (practically complete withering))"
same,B (bulrush) weedkilling efficacy grade,[6],"5 (weed kill ratio 90% or more, (practically complete withering))"
same,C (oval-leafed pondweed) weedkilling efficacy grade,[7],"5 (weed kill ratio 90% or more, (practically complete withering))"
same,D (crabgrass) weedkilling efficacy grade,[8],"5 (weed kill ratio 90% or more, (practically complete withering))"
same,E (green foxtail) weedkilling efficacy grade,[9],"5 (weed kill ratio 90% or more, (practically complete withering))"
same,G (wild oat) weedkilling efficacy grade,[10],"4 (weed kill ratio 70% or more, less than 90%)"
same,H (black-grass) weedkilling efficacy grade,[11],"5 (weed kill ratio 90% or more, (practically complete withering))"
same,I (Italian ryegrass) weedkilling efficacy grade,[12],"5 (weed kill ratio 90% or more, (practically complete withering))"
same,K (Indian mallow) weedkilling efficacy grade,[13],0 (weed kill ratio 5% or less (practically no effect))
same,L (redroot pigweed) weedkilling efficacy grade,[14],0 (weed kill ratio 5% or less (practically no effect))
same,M (fig-leafed goosefoot) weedkilling efficacy grade,[15],"1 (weed kill ratio 5% or more, less than 20%)"
same,N (chickweed) weedkilling efficacy grade,[16],0 (weed kill ratio 5% or less (practically no effect))
same,O (catchweed) weedkilling efficacy grade,[17],0 (weed kill ratio 5% or less (practically no effect))
same,P (birds-eye speedwell) weedkilling efficacy grade,[18],"3 (weed kill ratio 40% or more, less than 70%)"
same,b (directly sown rice) effect on crop grade,[19],"4 (weed kill ratio 70% or more, less than 90%)"
same,c (corn) effect on crop grade,[20],"4 (weed kill ratio 70% or more, less than 90%)"
same,d (soybean) effect on crop grade,[21],0 (weed kill ratio 5% or less (practically no effect))
same,e (wheat) effect on crop grade,[22],0 (weed kill ratio 5% or less (practically no effect))
same,f (beet) effect on crop grade,[23],"2 (weed kill ratio 20% or more, less than 40%)"
same,D (crabgrass) weedkilling efficacy grade,[24],"5 (weed kill ratio 90% or more, (practically complete withering))"
same,E (green foxtail) weedkilling efficacy grade,[25],"5 (weed kill ratio 90% or more, (practically complete withering))"
same,G (wild oat) weedkilling efficacy grade,[26],"4 (weed kill ratio 70% or more, less than 90%)"
same,H (black-grass) weedkilling efficacy grade,[27],"5 (weed kill ratio 90% or more, (practically complete withering))"
same,I (Italian ryegrass) weedkilling efficacy grade,[28],"5 (weed kill ratio 90% or more, (practically complete withering))"
same,K (Indian mallow) weedkilling efficacy grade,[29],"2 (weed kill ratio 20% or more, less than 40%)"
same,L (redroot pigweed) weedkilling efficacy grade,[30],"2 (weed kill ratio 20% or more, less than 40%)"
same,M (fig-leafed goosefoot) weedkilling efficacy grade,[31],"2 (weed kill ratio 20% or more, less than 40%)"
same,N (chickweed) weedkilling efficacy grade,[32],"2 (weed kill ratio 20% or more, less than 40%)"
same,O (catchweed) weedkilling efficacy grade,[33],0 (weed kill ratio 5% or less (practically no effect))
same,P (birds-eye speedwell) weedkilling efficacy grade,[34],"1 (weed kill ratio 5% or more, less than 20%)"
same,b (directly sown rice) effect on crop grade,[35],"5 (weed kill ratio 90% or more, (practically complete withering))"
same,c (corn) effect on crop grade,[36],"4 (weed kill ratio 70% or more, less than 90%)"
same,d (soybean) effect on crop grade,[37],"3 (weed kill ratio 40% or more, less than 70%)"
same,e (wheat) effect on crop grade,[38],0 (weed kill ratio 5% or less (practically no effect))
same,f (beet) effect on crop grade,[39],0 (weed kill ratio 5% or less (practically no effect))
